{
  "source": "patent US20250154457A1",
  "about": "“T-CELLS FOR ANTI-HIV CAR-T THERAPY AND METHODS OF USE” (City of Hope, priority 2021, published 2025)",
  "type_in_all_cases": "cell-based",
  "key": {"Jurkat cells": {"test_system": "Jurkat cells", "assay": "6TG selection of shHPRT-N6 CAR expressing Jurkat cells", "conditions": "Jurkat cells, 0, 1, or 3 uM 6TG for four days, trypan blue", "experimental": "(§1) FIGS. 2A-2D. 6TG selection of HPRT repressed CAR T-cells. FIG. 2A. Quantitative PCR analysis of HPRT expression following transfection of shHPRT plasmid. Untransfected Jurkat cells were used as a control. FIG. 2B. N6 CAR (control) or shHPRT-N6 CAR were transduced into Jurkat cells and co-cultured with either gp120 expressing HEK293 cells or HEK293 parental cells for 24 hours. Following incubation, the Jurkat cells were analyzed for CD69 expression by flow cytometry. FIG. 2C."}, "T-cells [1]": {"test_system": "T-cells", "assay": "6TG dose titration and multi-dosing selection of enrichment anti-HIV CAR T-cells", "experimental": "The cell counts of the T-cells, in addition to anti-HIV CAR expression percentage were measured over the course of culturing."}, "T-cells [2]": {"test_system": "T-cells", "assay": "Growth and phenotype of enrichment anti-HIV CAR T-cells after 6TG selection"}, "[3]": {"test_system": "gp160-expressing HEK293 cells", "assay": "CD69 activation of 6TG enriched anti-HIV CAR Jurkat cells co-cultured with gp160-expressing HEK293 cells", "conditions": "24 hour incubation, 6TG selected vs unselected anti-HIV CAR Jurkat cells", "experimental": "Following a 24 hour incubation, CD69 expression was analyzed."}, "HPRT": {"test_system": "HPRT", "assay": "Quantitative PCR of HPRT expression after transfection of shHPRT plasmid in Jurkat cells", "conditions": "transfected with shHPRT plasmid, FIG. 2A", "experimental": "as §1"}, "CCR5": {"test_system": "CCR5", "assay": "CCR5 knockdown in Magi.CCR5 reporter cells (PCR and flow cytometry)", "description": "FIGS. 5A-5C. Wobble base CCR5 shRNAs functionality. FIG. 5A. Quantitative PCR analysis of MAGI.CCR5 cells transduced with protection CAR (shCCR5w shTat/Rev anti-HIV CAR), compared to mock-transduced cells and cells transduced with conventional anti-HIV CAR without the shRNA. Decreased levels of CCR5 mRNA indicate successful knock-down using the protection CAR. FIG. 5B. CCR5 surface expression on MAGI.CCR5 cells transduced with the protection CAR compared to CCR5 expression on mock-transduced cells and on cells transduced with anti-HIV CAR without the shRNA. FIG. 5C. CCR5 surface expression on T-cells transduced with protection CAR (shCCR5w shTat/Rev anti-HIV CAR), compared to mock-transduced cells and cells transduced with conventional anti-HIV CAR without the shRNA. Decreased levels of CCR5 are indicative of successful knockdown using anti-CCR5 shRNA.\nNext, Applicant determined whether the shRNAs were functional. To test the shCCR5, Applicant transfected the protection and conventional CAR into Magi reporter line expressing CCR5 (Magi.CCR5). […] To confirm knock-down of CCR5, Applicant transduced T-cells with protection and conventional anti-HIV CAR constructs and analyzed CCR5 surface expression."}},
  "data": [
    {"compound": "Nc1nc(=S)c2[nH]cnc2[nH]1", "note": "[6TG, 6-thioguanine]", "values": [
      {"measurement": "cell counts and viability after 6TG", "setting": "Jurkat cells", "result": "eliminates cells that lack the anti-HPRT shRNA"},
      {"measurement": "enrichment of anti-HIV CAR T-cells at 50 nM", "setting": "T-cells [1]; 50 nM 6TG, single dose titration", "result": "most enrichment potential"},
      {"measurement": "effect on cell counts at 100 nM", "setting": "T-cells [1]; 100 nM 6TG", "result": "loss of a number of T-cells transduced with the enrichment anti-HIV CAR construct"},
      {"measurement": "effect on cells at 1 M 6TG", "setting": "T-cells [1]; 6TG, data not shown", "result": "loss of all T-cells"},
      {"measurement": "effect on cell counts at 10, 20, and 50 nM", "setting": "T-cells [1]; 10, 20, and 50 nM 6TG", "result": "exerted toxic effects on the non-transduced T-cells"},
      {"measurement": "optimized dose of 6TG to enrich CAR T-cells", "setting": "T-cells [1]; without impacting growth", "result": 50, "unit": "nM"},
      {"measurement": "growth of anti-HIV CAR T-cells", "setting": "T-cells [2]; 6TG-treated vs not subjected to 6TG", "result": "equivalent"},
      {"measurement": "total T-cell growth", "setting": "T-cells [2]; after treatment with 6TG", "result": "decreased over the course of culture"},
      {"measurement": "exhaustion markers (PD-1, Tim3, Lag-3)", "setting": "T-cells [2]; following 6TG treatment", "result": "No noticeable changes"},
      {"measurement": "activation as assessed by CD69 levels", "setting": "[3]", "result": "decrease in activation"}
    ]},
    {"compound": "anti-HPRT shRNA: shRNA that downregulates expression of the HPRT gene, SEQ ID NO:12 (GCACUGAAUAGAAAUGGUGGUUCAAGAGAUCACUAUUUCUAUUCAGUGCUU)", "values": [
      {"measurement": "HPRT expression", "setting": "HPRT", "result": "robustly repressed"}
    ]},
    {"compound": "shCCR5w: anti-CCR5 shRNA wobble base, SEQ ID NO: 11 (AGUGUCAAGUCCAAUUUGUGGUUCAAGAGAUCAUAGAUUGGACUUGACACUUU)", "values": [
      {"measurement": "CCR5 knockdown", "setting": "CCR5", "result": "successful in knocking down CCR5"}
    ]}
  ]
}
